Biological target: human Edg-2 receptor (LPA1 receptor) (Homo sapiens, UniProt Q92633)
Assay: Edg-2 receptor inhibition by FLIPR calcium fluorescence measurement (LPA-mediated calcium liberation)
Assay type: cell-based
Settings: CHO cells stably overexpressing human Edg-2 receptor; LPA 18:1 100 nM; fluo-4 fluorescence; triplicate; read-out: Inhibitory concentrations IC50 for inhibition of the Edg-2 receptor
Procedure, shortened: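 CHO cells stably overexpressing human Edg-2 were fluo-4 loaded and pre-incubated ~5 min with compound (≤0.3% DMSO) in HBSS/HEPES/probenecid, pH 7.5. Then LPA 18:1 at 100 nM final was added. Peak calcium fluorescence over ~3 min, baseline-corrected versus DMSO, gave % inhibition in triplicate and IC50.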

Sequence of human Edg-2 receptor (LPA1 receptor) (Q92633 whole entry): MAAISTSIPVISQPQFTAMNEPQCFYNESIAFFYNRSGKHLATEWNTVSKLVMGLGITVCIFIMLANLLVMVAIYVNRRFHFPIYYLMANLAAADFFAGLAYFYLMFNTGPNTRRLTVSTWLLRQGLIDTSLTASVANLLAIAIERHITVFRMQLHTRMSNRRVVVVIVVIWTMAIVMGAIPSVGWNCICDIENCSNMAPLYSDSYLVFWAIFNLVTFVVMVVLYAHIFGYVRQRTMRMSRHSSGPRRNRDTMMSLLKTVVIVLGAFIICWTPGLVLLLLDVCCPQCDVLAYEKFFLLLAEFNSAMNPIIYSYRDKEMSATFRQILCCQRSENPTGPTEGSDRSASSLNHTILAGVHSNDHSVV

| SMILES | IC50 |
| --- | --- |
| COc1ncc(C(=O)NC2(C(=O)O)Cc3ccccc3C2)cc1-c1cccc(C(C)C)c1 [Example 221, 2-{[5-(3-Isopropyl-phenyl)-6-methoxy-pyridine-3-carbonyl]-amino}-indane-2-carboxylic acid] | < 100 nM |
| COc1ncc(C(=O)NC2(C(=O)O)Cc3ccccc3C2)cc1-c1cccc(SC)c1 [Example 222, 2-{[6-Methoxy-5-(3-methylsulfanyl-phenyl)-pyridine-3-carbonyl]-amino}-indane-2-carboxylic acid] | < 100 nM |
| COc1ncc(C(=O)NC2(C(=O)O)Cc3ccccc3C2)cc1-c1cccc(Cl)c1 [Example 223] | < 100 nM |
| COc1ncc(C(=O)NC2(C(=O)O)Cc3ccccc3C2)cc1-c1ccccc1Cl [Example 225] | 100 to 1000 nM |
| COc1ncc(C(=O)NC2(C(=O)O)Cc3ccccc3C2)cc1-c1ccc(Cl)cc1 [Example 226] | < 100 nM |
| COc1ncc(C(=O)NC2(C(=O)O)Cc3ccccc3C2)cc1-c1cccc(Cl)c1Cl [Example 228] | < 100 nM |
| COc1ncc(C(=O)NC2(C(=O)O)Cc3ccccc3C2)cc1-c1cc(F)c(F)c(F)c1 [Example 229] | < 100 nM |
| COc1ncc(C(=O)NC2(C(=O)O)Cc3ccccc3C2)cc1-c1cccc(C(F)(F)F)c1F [Example 230] | < 100 nM |
| COc1ncc(C(=O)NC2(C(=O)O)Cc3ccccc3C2)cc1-c1cccc(NS(=O)(=O)N(C)C)c1 [Example 231] | < 100 nM |
| CCSc1cccc(-c2cc(C(=O)NC3(C(=O)O)Cc4ccccc4C3)cnc2OC)c1 [Example 233] | < 100 nM |
| COc1ncc(C(=O)NC2(C(=O)O)Cc3ccccc3C2)cc1-c1cccc(OC(F)(F)F)c1 [Example 234] | < 100 nM |
| COc1ncc(C(=O)NC2(C(=O)O)Cc3ccccc3C2)cc1-c1cc(Cl)cc(C(F)(F)F)c1 [Example 235] | < 100 nM |
| COc1ncc(C(=O)NC2(C(=O)O)Cc3ccccc3C2)cc1-c1cccc(C#N)c1 [Example 236] | < 100 nM |
| CCS(=O)(=O)c1cccc(-c2cc(C(=O)NC3(C(=O)O)Cc4ccccc4C3)cnc2OC)c1 [Example 237, 2-{[5-(3-Ethanesulfonyl-phenyl)-6-methoxy-pyridine-3-carbonyl]-amino}-indane-2-carboxylic acid] | 100 to 1000 nM |
| COc1ccc(C(=O)NC2(C(=O)O)Cc3ccccc3C2)cc1C(=O)c1ccccc1C [Example 240, 2-[4-Methoxy-3-(2-methyl-benzoyl)-benzoylamino]-indane-2-carboxylic acid] | 1000 to 30000 nM |
| COc1ccc(C(=O)NC2(C(=O)O)Cc3ccccc3C2)cc1C(O)c1ccccc1C (stereo not drawn) [Example 241, 2-[3-(Hydroxy-o-tolyl-methyl)-4-methoxy-benzoylamino]-indane-2-carboxylic acid] | 1000 to 30000 nM |

More lines, now with the values ahead:

| IC50 | SMILES |
| --- | --- |
| < 100 nM | COc1ncc(C(=O)NC2(C(=O)O)Cc3ccccc3C2)cc1-c1cccc(C)c1 [Example 224, 2-{[6-methoxy-5-(3-methyl-phenyl)-pyridine-3-carbonyl]-amino}-indane-2-carboxylic acid] |
| 100 to 1000 nM | COc1ccc(C(=O)NC2(C(=O)O)Cc3ccccc3C2)cc1Oc1ccccc1C [Example 238, 2-(4-Methoxy-3-o-tolyloxy-benzoylamino)-indane-2-carboxylic acid] |
| 1000 to 30000 nM | COc1ccc(C(=O)NC2(C(=O)O)Cc3ccccc3C2)cc1Oc1cccc(C)c1 [Example 239, 2-(4-Methoxy-3-m-tolyloxy-benzoylamino)-indane-2-carboxylic acid] |
| 100 to 1000 nM | COc1ccc(C(=O)NC2(C(=O)O)Cc3ccccc3C2)cc1Cc1ccccc1C [Example 242, 2-[4-Methoxy-3-(2-methyl-benzyl)-benzoylamino]-indane-2-carboxylic acid] |
| 1000 to 30000 nM | COc1ccc(C(=O)NC2(C(=O)O)Cc3ccccc3C2)cc1Cc1ccccc1 [Example 243, 2-[4-Methoxy-3-benzyl-benzoylamino]-indane-2-carboxylic acid] |
| 100 to 1000 nM | COc1ccc(C(=O)NC2(C(=O)O)Cc3ccccc3C2)cc1Cc1cccc(C)c1 [Example 244, 2-[4-Methoxy-3-(3-methyl-benzyl)-benzoylamino]-indane-2-carboxylic acid] |
| < 100 nM | COc1ccc(C(=O)NC2(C(=O)O)Cc3ccccc3C2)cc1Cc1ccc(C)cc1 [Example 245, 2-[4-Methoxy-3-(4-methyl-benzyl)-benzoylamino]-indane-2-carboxylic acid] |
| 1000 to 30000 nM | COc1ccc(C(=O)NC2(C(=O)O)Cc3ccccc3C2)cc1OCCc1cccc(CCN)c1 [Example 246, 2-(3-{2-[3-(2-Amino-ethyl)-phenyl]-ethoxy}-4-methoxy-benzoylamino)-indane-2-carboxylic acid] |
| 100 to 1000 nM | COc1ccc(C(=O)NC2(C(=O)O)Cc3ccccc3C2)cc1OCCc1cccc(CCNC(C)=O)c1 [Example 247, 2-(3-{2-[3-(2-Acetylamino-ethyl)-phenyl]-ethoxy}-4-methoxy-benzoylamino)-indane-2-carboxylic acid] |
| < 100 nM | COc1ccc(C(=O)NC2(C(=O)O)Cc3ccccc3C2)cc1OCCc1cccc(CC(N)=O)c1 [Example 248, 2-{3-[2-(3-Carbamoylmethyl-phenyl)-ethoxy]-4-methoxy-benzoylamino}-indane-2-carboxylic acid] |
| < 100 nM | COc1ccc(C(=O)NC2(C(=O)O)Cc3ccccc3C2)cc1OCCc1cccc(CC(C)(C)O)c1 [Example 249, 2-(3-{2-[3-(2-Hydroxy-2-methyl-propyl)-phenyl]-ethoxy}-4-methoxy-benzoylamino)-indane-2-carboxylic acid] |
| < 100 nM | COc1ccc(C(=O)NC2(C(=O)O)Cc3ccccc3C2)cc1OCC1(c2ccccc2)COC1 [Example 250, 2-[4-Methoxy-3-(3-phenyl-oxetan-3-ylmethoxy)-benzoylamino]-indane-2-carboxylic acid] |
| 1000 to 30000 nM | COc1ccc(C(=O)NC2(C(=O)O)Cc3ccccc3C2)cc1OCCc1cccc(O)c1 [Example 251, 2-{3-[2-(3-Hydroxy-phenyl)-ethoxy]-4-methoxy-benzoylamino}-indane-2-carboxylic acid] |
| 100 to 1000 nM | COc1cc(C(=O)NC2(C(=O)O)Cc3ccccc3C2)ccc1OCCc1cccc(C)c1 [Example 252, 2-[3-Methoxy-4-(2-m-tolyl-ethoxy)-benzoylamino]-indane-2-carboxylic acid] |
| < 100 nM | Cc1cccc(CCOc2cc(C(=O)NC3(C(=O)O)Cc4ccccc4C3)ccc2OCc2ccccc2)c1 [Example 253, 2-[4-Benzyloxy-3-(2-m-tolyl-ethoxy)-benzoylamino]-indane-2-carboxylic acid] |
| 1000 to 30000 nM | Cc1cccc(CCOc2cc(C(=O)NC3(C(=O)O)Cc4ccccc4C3)ccc2O)c1 [Example 254, 2-[4-Hydroxy-3-(2-m-tolyl-ethoxy)-benzoylamino]-indane-2-carboxylic acid] |
| < 100 nM | Cc1cccc(CCOc2cc(C(=O)NC3(C(=O)O)Cc4ccccc4C3)ccc2OC(C)C)c1 [Example 255, 2-[4-Isopropoxy-3-(2-m-tolyl-ethoxy)-benzoylamino]-indane-2-carboxylic acid] |
| < 100 nM | COCCOc1ccc(C(=O)NC2(C(=O)O)Cc3ccccc3C2)cc1OCCc1cccc(C)c1 [Example 256] |
| < 100 nM | Cc1cccc(CCOc2cc(C(=O)NC3(C(=O)O)Cc4ccccc4C3)ccc2OCC2CCCCC2)c1 [Example 257] |
| < 100 nM | Cc1cccc(CCOc2cc(C(=O)NC3(C(=O)O)Cc4ccccc4C3)ccc2OCC2CCOC2)c1 (stereo not drawn) [Example 258] |
